The subject of the experiment is male ICR mice. The experiment is described as follows: Formalin paw test. To be noted: for Early Phase: early/acute phase (0-10 minutes) after formalin; for Late Phase: late/tonic phase (10-35 minutes) after formalin. The experiment is classed as in vivo, mouse. How it is done:
One test compound or the vehicle was administered to each mouse in each test group (8 mice per group). Non-fasted male ICR mice weighing 23±3 g were used. Test compounds were administered at a concentration of 3 mg/kg, 10 mg/kg, 15 mg/kg, 30 mg/kg, 60 mg/kg, 100 mg/kg, 200 mg/kg or 300 mg/kg; morphine was administered at a concentration of 5 mg/kg; and acetaminophen was administered at a concentration of 200 mg/kg. The control group received the vehicle (5% DMSO/40% PEG400/20% HPbCD/Saline). After 30 or 60 minutes, a 2% formalin solution (0.02 mL) was injected into one hind paw (sub-plantar) of each mouse. Responses were measured every 5 minutes after the formalin injection for 35 minutes.
The results in Table A are for oral administration; the results in Table B are for intraperitoneal administration. In Tables A and B, ‘A’ designates <70 licks/sec, ‘B’ designates ≥70 licks/sec and <165 licks/sec, and ‘C’ designates ≥165 licks/sec.

[1] abbreviates: intraperitoneal administration, 30 mg/kg.

Structures are written as SMILES. Counter-ions that a name gives are not always drawn.

As to `CC(=O)NC12CC(C(C)C)(C1)C2` [Compound 8], under “oral administration, 200 mg/kg”, the “Early Phase” value is on record as “A (‘A’ designates <70 licks/sec)” and the “Late Phase” value is “A (‘A’ designates <70 licks/sec)”.

`CC(=O)NC12CC(C(F)(F)F)(C1)C2` [Compound 4]: under “oral administration, 200 mg/kg”, the “Early Phase” value is “A (‘A’ designates <70 licks/sec)” and the “Late Phase” value was “C (‘C’ designates ≥165 licks/sec)”.

For the molecule `CC(C)(C)C12CC(CN)(C1)C2` [Compound 1c, (3-(tert-butyl)bicyclo[1.1.1]pentan-1-yl)methanamine], under setting [1], the “Early Phase” value was “B (‘B’ designates ≥70 licks/sec and <165 licks/sec)”; the “Late Phase” value was “B (‘B’ designates ≥70 licks/sec and <165 licks/sec)”.

Consider `CC(C)(C)C(=O)NC12CC(C1)C2` [Compound 12], for which, where the note is “oral administration, 200 mg/kg”, the “Early Phase” value was “B (‘B’ designates ≥70 licks/sec and <165 licks/sec)”; the “Late Phase” value is recorded as “C (‘C’ designates ≥165 licks/sec)”.

For `CC(=O)NCC12CC(C(F)(F)F)(C1)C2` [Compound 2], for the setting “oral administration, 200 mg/kg”, the “Early Phase” value is “B (‘B’ designates ≥70 licks/sec and <165 licks/sec)”; the “Late Phase” value is “B (‘B’ designates ≥70 licks/sec and <165 licks/sec)”.

Take `CC(=O)N(C)C12CC(C(C)(C)C)(C1)C2` [Compound 14]: under “oral administration, 200 mg/kg”, the “Early Phase” value is listed as “A (‘A’ designates <70 licks/sec)” and the “Late Phase” value is listed as “A (‘A’ designates <70 licks/sec)”.

On to `CC(C)(C)C(=O)NC12CC(C(C)(C)C)(C1)C2` [Compound 11], for which, for the setting “oral administration, 200 mg/kg”, the “Early Phase” value was “A (‘A’ designates <70 licks/sec)” and the “Late Phase” value was “A (‘A’ designates <70 licks/sec)”.

For `CC(=O)NC12CC(C(C)(C)O)(C1)C2` [Compound 18], under setting [1], the “Early Phase” value was “B (‘B’ designates ≥70 licks/sec and <165 licks/sec)”; the “Late Phase” value is on record as “C (‘C’ designates ≥165 licks/sec)”.

Take `CC(=O)NCC12CC(C(C)(C)C)(C1)C2` [Compound 1, N-((3-(tert-butyl)bicyclo[1.1.1]pentan-1-yl)methyl)acetamide]: where the note is “oral administration, 200 mg/kg”, the “Early Phase” value was “A (‘A’ designates <70 licks/sec)” and the “Late Phase” value was “A (‘A’ designates <70 licks/sec)”.

`O=C(NC12CC(C1)C2)C(F)(F)F` [Compound 9]: where the note is “oral administration, 200 mg/kg”, the “Early Phase” value is “B (‘B’ designates ≥70 licks/sec and <165 licks/sec)”; the “Late Phase” value is “C (‘C’ designates ≥165 licks/sec)”.

Turning to `NCCC12CC(C(F)(F)F)(C1)C2` [Compound 21, 2-(3-(trifluoromethyl)bicyclo[1.1.1]pentan-1-yl)ethanamine, hydrochloride], under setting [1], the “Early Phase” value was “B (‘B’ designates ≥70 licks/sec and <165 licks/sec)”; the “Late Phase” value is “B (‘B’ designates ≥70 licks/sec and <165 licks/sec)”.

With `CC(=O)NC12CC(C)(C1)C2` [Compound 6], under “oral administration, 200 mg/kg”, the “Early Phase” value was “B (‘B’ designates ≥70 licks/sec and <165 licks/sec)”; the “Late Phase” value is “B (‘B’ designates ≥70 licks/sec and <165 licks/sec)”.

The record behind these values is patent US10975035B2, “Bicyclic compounds” (Recurium IP Holdings, LLC, priority 2014, dated 2021).
